Experimental data reported in patent US20240352069A1, “SYNTHETIC PEPTIDE, AND COSMETIC COMPOSITION OR PHARMACEUTICAL COMPOSITION AND APPLICATION THEREOF” (SHENZHEN WINKEY TECHNOLOGY CO., LTD., priority 2021, published 2024).
Each block holds one compound with its values, some of them ahead of it. Residues, ends and D or L forms follow the SMILES beside them. *: point of attachment. CH2CO2tBu = CC(C)(C)OC(=O)C*; Carboxymethyl = O=C(O)C*; Allyl = C=CC*; X1 = CCCCCCS*; SEt = CCS*

Columns and labels:
[1] = Stability of powders under high humidity (HPLC purity); format: physicochemical; settings: powder; for High humidity, Day 10 (purity): RH92.5%, 25° C., 10 days
Description: The powder samples of peptides (3)-(7) were placed under high humidity (RH92.5%, 25° C.) conditions for 10 days, and the purity changes of each sample were investigated by HPLC.

NIH3T3 cells = assay: Cell proliferation experiment (MTT), NIH3T3; format: cell-based, mouse; settings: 24 hours
Description: (§1) Human keratinocytes (HaCaT) were purchased from the Kunming Cell Bank of the Type Culture Collection Committee of the Chinese Academy of Sciences, and mouse skin fibroblasts (NIH3T3) were purchased from the Shanghai Cell Bank of the Type Culture Collection Committee of the Chinese Academy of Sciences.
(§2) • a) Take cells in good condition in exponential growth phase, add 0.25% trypsin digestion solution, digest to make adherent cells fall off, count 1-4×10^5 cells/mL, and make cell suspension; • b) Appropriately dilute 2000 cells/well of the cell suspension and inoculate it on a 96-well plate at 200 μL/well, and culture it in a constant temperature CO2 incubator for 24 hours. • c) Change the medium, add the sample to be tested, 20 μL/well, and incubate for 24 hours; • d) Add the MTT reagent into the 96-well plate, 20 μL/well, and react in the incubator for 4 hours; • e) Aspirate the supernatant, add DMSO, 150 μL/well, and shake on a plate shaker for 5 minutes; • f) After 5 minutes, use a microplate reader to read the reference OD values at 490 nm and 630 nm wavelengths, and calculate the cell viability:
(§3) MTT method is a method to detect cell survival and growth. The measured OD value is directly proportional to cell activity. The larger the OD value, the higher the cell activity.

HaCaT cells [2] = assay: UVB light damage repair experiment (MTT), HaCaT; format: cell-based, human; settings: UVB irradiated, 12.5-100 ppm, 24 hours
Description: as §1
Take cells in good exponential growth phase, add 0.25% trypsin digestion solution, digest to make adherent cells fall off, count 1×10^5-4×10^5 cells/mL, and make cell suspension.
Cells were seeded into 96-well plates at 10,000 cells/well, and the UVB photodamage model was established when the cells reached about 80% confluent. […]
After 24 hours, add 22 μL of 5 mg/mL MTT to each well, place in an incubator and incubate for 4 hours, discard the original solution, and add 150 μL/well of DMSO. After 5 minutes, use a microplate reader to read the reference OD values at 490 nm and 630 nm wavelengths.
By establishing a UVB light-damaged cell model, administering 24 hours after ultraviolet light irradiation, and using the MTT method to detect cell proliferation activity, the ability of the peptide of the present invention to repair light-damaged cells was evaluated.

HaCaT cells [3] = assay: Cell proliferation experiment (MTT), HaCaT; format: cell-based, human; settings: 24 hours
Description: as §1, §2, §3

HaCaT cells [4] = assay: Scratch test (cell migration); format: cell-based, human; settings: 24 hours after scratch; peptides 100 ppm, EGF 50 U/mL; vs normal control group
Description: Human keratinocytes (HaCaT) were purchased from the Kunming Cell Bank of the Type Culture Collection Committee of the Chinese Academy of Sciences.
The cryopreserved HaCaT cells were cultured, subcultured to about 5 passages according to the ratio of 1:2, and the cells with better growth were selected as the experimental objects. Cells were seeded in a 12-well plate at a density of 200,000 cells/well, with 2 mL of cell suspension in each well. After the cells adhered to the wall, the medium was replaced with 0.5% to 1% fetal bovine serum to maintain the cells for 24 hours to synchronize them. change. Scratch with a sterilized pipette tip, wash off the dropped cells with PBS, add the sample to be tested, continue to incubate in a 37° C., 5% CO2 incubator, and place it under an optical microscope after 24 hours to analyze the wound healing area.
The cell scratch migration test can reflect the proliferation and repair ability of the cells.

[5] = Stability of aqueous solutions (HPLC purity over time); format: physicochemical
Description: (§4) In Example 29, the HPLC chromatographic separation conditions were as follows: • Chromatographic column: Octadecyl bonded silica gel as filler 4.6*250 mm, 5 m • Mobile phase A: Acetonitrile (containing 0.09% trifluoroacetic acid) • Mobile phase B: 0.1% trifluoroacetic acid • Diluent: water • Flow rate: 1.0 ml/min; • Column temperature: 35° C.; • Detection wavelength: 215 nm; • Injection volume: 10 μl; • Running time: 32 min • Gradient elution table:
(§5) The test solution: Take an appropriate amount of this product and add water to dissolve and dilute to make a solution containing 1 mg per 1 ml.

[6] = Stability of powders at 25° C. and 40° C. (HPLC purity over time)
Description: as §4, §5

[7] = 12.5 ppm-100 ppm, vs PBS blank control

Day 0 (purity) [1]: 96.017%
High humidity, Day 10 (purity) [1]: 93.962%
Compound: CCC(C)C(NC(=O)CNC(=O)C(CCSC)NC(=O)C(CCCNC(=N)N)NC(=O)C(Cc1ccccc1)NC(=O)C1CCCN1C(=O)C(C)N)C(=O)NC(CSCC(=O)OC(C)(C)C)C(=O)NC(C(=O)NC(C(=O)NC(CC(N)=O)C(=O)O)C(C)O)C(C)O (stereo not shown) [(4)] (H-APFRMGIC(CH2CO2tBu)TTN-OH; configuration not given here)

Day 0 (purity) [1]: 97.482%
High humidity, Day 10 (purity) [1]: 94.603%
Compound: CCSSCC(NC(=O)C(NC(=O)CNC(=O)C(CCSC)NC(=O)C(CCCNC(=N)N)NC(=O)C(Cc1ccccc1)NC(=O)C1CCCN1C(=O)C(C)N)C(C)CC)C(=O)NC(C(=O)NC(C(=O)NC(CC(N)=O)C(=O)O)C(C)O)C(C)O (stereo not shown) [(5)] (H-APFRMGIC(SEt)TTN-OH; configuration not given here)

Day 0 (purity) [1]: 96.235%
High humidity, Day 10 (purity) [1]: 95.719%
Compound: CCCCCCSSCC(NC(=O)C(NC(=O)CNC(=O)C(CCSC)NC(=O)C(CCCNC(=N)N)NC(=O)C(Cc1ccccc1)NC(=O)C1CCCN1C(=O)C(C)N)C(C)CC)C(=O)NC(C(=O)NC(C(=O)NC(CC(N)=O)C(=O)O)C(C)O)C(C)O (stereo not shown) [(6)] (H-APFRMGIC(X1)TTN-OH; configuration not given here)

Day 0 (purity) [1]: 98.541%
High humidity, Day 10 (purity) [1]: 97.863%
Compound: CCC(C)C(NC(=O)CNC(=O)C(CCSC)NC(=O)C(CCCNC(=N)N)NC(=O)C(Cc1ccccc1)NC(=O)C1CCCN1C(=O)C(C)N)C(=O)NC(CSCC(=O)O)C(=O)NC(C(=O)NC(C(=O)NC(CC(N)=O)C(=O)O)C(C)O)C(C)O (stereo not shown) [(7)] (H-APFRMGIC(Carboxymethyl)TTN-OH; configuration not given here)

Day 0 (purity) [1]: 97.605%
High humidity, Day 10 (purity) [1]: 96.251%
Compound: C=CCSCC(NC(=O)C(NC(=O)CNC(=O)C(CCSC)NC(=O)C(CCCNC(=N)N)NC(=O)C(Cc1ccccc1)NC(=O)C1CCCN1C(=O)C(C)N)C(C)CC)C(=O)NC(C(=O)NC(C(=O)NC(CC(N)=O)C(=O)O)C(C)O)C(C)O (stereo not shown) [Peptide (3)] (H-APFRMGIC(Allyl)TTN-OH; configuration not given here)
impact on the activity of NIH3T3 cells compared among peptides (1)-(5) (NIH3T3 cells; 12.5-100 ppm): greater impact on the activity of NIH3T3 cells
effect on the activity of NIH3T3 cells (MTT) (NIH3T3 cells; [7]): could improve the activity of NIH3T3 cells and promote their proliferation
effect on improving activity of photodamaged HaCaT cells compared among peptides (1)-(5) (HaCaT cells [2]): better effect on improving cell activity
impact on the activity of HaCaT cells compared among peptides (1)-(5) (HaCaT cells [3]; 12.5-100 ppm): greater impact on the activity of HaCaT cells
effect on the activity of HaCaT cells (MTT) (HaCaT cells [3]; [7]): could both improve the activity of HaCaT cells, promote their proliferation

Compound: EGF: epidermal growth factor (EGF), 50 U/mL, positive group in the scratch test
scratch spacing (proliferation and migration) (HaCaT cells [4]): spacing was significantly shortened

Compound: H-Ala-Pro-Phe-Arg-Met-Gly-Ile-Cys-Thr-Thr-Asn-OH (H-APFRMGICTTN-OH) [Reference peptide A]
aqueous solution (purity) ([5]; Day 8 at room temperature): 80.880%
aqueous solution (purity) ([5]; Day 18 at room temperature): 72.693%
aqueous solution (purity) ([5]; Day 18 at room temperature, listed as reference peptide A): 72.693%
aqueous solution (purity) ([5]; Solution, Day 0): 88.030%
aqueous solution (purity) ([5]; Solution, Day 0, listed as reference peptide A): decreased significantly
powder (purity) ([6]; 25° C., Day 5): 85.913%
powder (purity) ([6]; 40° C., Day 5): 57.503%
powder (purity) ([6]; 40° C., Day 5, listed as reference peptide A): 57.503%
powder (purity) ([6]; powder, Day 0): 88.030%
